Results reported in patent US9663463B2, “3-azabicyclo[3.1.0]hexane derivative and use thereof for medical purpose” (priority 2013, dated 2017).
Where a name gives a salt, the structure may show the parent alone.

Legend:
[1] = system: pruritus mice model to which morphine had been intracisternally administered; experiment: Anti-pruritic effect in pruritus mice model to which morphine had been intracisternally administered; assay type: in vivo; settings: Mus musculus; oral administration, male ICR mice, inhibition of morphine-induced scratching behavior; read-out: ED50
Experimental: As experimental animals, male ICR (Cr1j: CD1 (ICR): Charles River Japan) mice were used at 5 to 6-week old. The mice were placed in an acrylic cage (colorless and transparent, W 13.5 cm×D 9.5 cm×H 40 cm) for observing scratching behavior for 30 minutes or more to thereby allow the mice to get used to the observation environment, and the test substance solutions were forcedly orally administered to the test substance-administered groups. In addition, an administration vehicle was forcedly orally administered to the normal control group and the pathological control group. A necessary amount of the test substance was weighed and formed into a micropowder in an agate mortar, an administration vehicle, a 0.5 w/v % methyl cellulose 400 solution (Wako Pure Chemical Industries Ltd.) was added little by little, and preparation was performed by suspending or dissolving so as to give an intended concentration (from 0.025 to 3 mg/ml). The test doses were preset to suitable doses in the range in which the maximum dose is 30 mg/10 ml/kg.
Based on 30 minutes after the forced oral administration of the test substance as a criterion, the time for the intracisternal administration of morphine was suitably set up to 120 minutes after at the maximum, with consideration for the times of maximum plasma concentration of the respective test substances, in the case when the in vivo pharmacokinetics of the test substance had been confirmed in advance. Furthermore, saline was intracisternally administered to the normal control group, and the above-mentioned morphine solution was intracisternally administered to the pathogenic control group, so as to be 5 μL/site at the same time as that of the test substance group after the forced oral administration of the administration vehicle in either case.
The behavior of each mouse within 60 minutes from the intracisternal administration of the morphine solution or saline was recorded by a digital video camera that was installed immediately above the acrylic cage, the images were stored in a digital video recorder, and the number of frequency of the scratching behavior was measured. The number of frequency of the scratching behavior was measured with deeming a behavior in which the mouse raised its hindlimb, scratched the facial surface and the peripheral sites thereof, and got the hindlimb off from the body within 30 minutes from after the intracisternal administration of the morphine or saline as one time.
The anti-pruritic effect of each test substance was obtained as follows. As an inhibition ratio against the number of frequency of the scratching behavior on the pathological control group, the inhibition ratio (%) of the respective individuals and the average value thereof were calculated from the following formula, and an ED50 value was calculated based on the obtained inhibition ratio. Inhibition ratio of each individual (%)={1−(A−Vehicle)/(Morphine−Vehicle)}×100 Morphine: the average of the scratching number of the pathological control group Vehicle: the average of the scratching number of the normal control group A: the scratching number of each individual in the test substance-administered group

hERG current = hERG current (Homo sapiens (Human), UniProt Q12809); experiment: cell-based
hERG current, sequence (Q12809 whole entry): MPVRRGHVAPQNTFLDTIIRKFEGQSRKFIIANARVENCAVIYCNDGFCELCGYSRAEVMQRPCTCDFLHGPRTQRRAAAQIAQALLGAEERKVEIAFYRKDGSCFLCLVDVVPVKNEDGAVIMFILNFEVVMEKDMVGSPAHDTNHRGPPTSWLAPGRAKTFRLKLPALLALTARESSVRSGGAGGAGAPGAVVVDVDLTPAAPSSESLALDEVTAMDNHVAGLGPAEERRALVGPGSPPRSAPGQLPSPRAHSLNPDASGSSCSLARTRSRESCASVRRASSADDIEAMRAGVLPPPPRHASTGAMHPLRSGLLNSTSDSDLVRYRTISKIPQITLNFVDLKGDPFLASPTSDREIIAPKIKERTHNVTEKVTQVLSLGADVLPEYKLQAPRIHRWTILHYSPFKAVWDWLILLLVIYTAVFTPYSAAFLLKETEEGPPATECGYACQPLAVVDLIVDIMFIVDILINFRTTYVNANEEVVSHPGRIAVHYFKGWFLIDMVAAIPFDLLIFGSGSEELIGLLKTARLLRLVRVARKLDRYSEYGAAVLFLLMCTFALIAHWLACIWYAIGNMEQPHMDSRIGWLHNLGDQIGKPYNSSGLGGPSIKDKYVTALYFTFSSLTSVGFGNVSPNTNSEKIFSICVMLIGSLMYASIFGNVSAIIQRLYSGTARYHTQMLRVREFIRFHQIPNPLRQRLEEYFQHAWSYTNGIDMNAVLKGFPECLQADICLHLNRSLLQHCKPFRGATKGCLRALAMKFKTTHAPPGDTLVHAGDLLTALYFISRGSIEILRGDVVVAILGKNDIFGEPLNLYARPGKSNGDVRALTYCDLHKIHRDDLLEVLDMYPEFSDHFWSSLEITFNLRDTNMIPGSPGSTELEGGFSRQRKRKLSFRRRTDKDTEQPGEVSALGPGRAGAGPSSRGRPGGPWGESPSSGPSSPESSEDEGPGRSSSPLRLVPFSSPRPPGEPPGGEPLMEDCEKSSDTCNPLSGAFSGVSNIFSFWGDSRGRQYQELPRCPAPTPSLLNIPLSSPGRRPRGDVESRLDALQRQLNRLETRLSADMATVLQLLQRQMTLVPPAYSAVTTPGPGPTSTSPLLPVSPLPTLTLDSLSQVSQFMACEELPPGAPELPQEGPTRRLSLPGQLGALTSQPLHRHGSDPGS
Source text: A: the suppression rate (%) of the test substance in each cell
B: the average suppression rate (%) of the vehicle control group

human μ-opioid receptor = human μ-opioid receptor (Homo sapiens (Human), UniProt P35372); experiment: Antagonist activity test using [35S]-GTPγS bond as index using human μ-opioid receptor-expressing cell membrane; assay type: biochemical
Experimental: Cells in which a human μ-opioid receptor had been highly expressed was purchased from ChanTest (Cleveland). The cells were cultured in a carbon dioxide gas culturing apparatus by using a Ham's F12 culture medium (Invitrogen) containing 10% of fetal bovine blood serum, 1% of non-essential amino acids, 0.4 mg/ml of G418, 100 U/ml of penicillin and 100 μg/ml of streptomycin. The cultured cells were suspended by using a 0.25% trypsin 1 mM EDTA solution, the suspension was collected by using phosphate-buffered saline and centrifuged at 4° C. and 1,000 rpm for 10 minute to remove the supernatant, whereby a cell mass was obtained. […] Similar homogenization and centrifugation operations were repeated on the sediment, a homogenized buffer was added again to the obtained sediment, and the resultant was similarly homogenized to give a membrane fraction solution. The obtained membrane fraction solution was dispensed, rapidly frozen and stored under freezing at −70° C. or less until use. Furthermore, the protein concentration of the obtained membrane fraction solution was measured by using a BCA protein Assay Kit (Cat. 23227, Pierce) according to the protocol attached to the kit.
The cell membrane fraction solution in which the human μ-opioid receptor had expressed, which had been stored under freezing, was melted, a GTP assay buffer (100 mM NaCl, 5 mM MgCl2, 1 mM EDTA-containing 50 mM Hepes (pH 7.4)) was added thereto, and the resultant was homogenized repeatedly twice by using a Polytron homogenizer (SMT Multi Disperser PB95) under ice cooling at 12,000 rpm for 20 seconds to give a homogeneous solution, and the homogeneous solution was diluted to 0.036 mg/ml with a GTP assay buffer containing 18.2 μM of GDP (final concentration: […]). The dilution was incubated for 15 minutes or more under ice cooling until the reaction was initiated. […] [^35S]-GTPγS (NEG030X, Perkinelmer) was diluted with a GTP assay buffer so as to be 0.616 nM (final concentration: 0.08 nM). The resultant was diluted with a GTP assay buffer so as to be 200 nM (final concentration: 10 nM) by using [D-Ala^2, N-Me-Phe^4, Gly^5-ol]-enkephalinacetate (DAMGO, Sigma) as a μ-opioid receptor agonist. WGA Coated PVT SPA Beads (RPNQ0001, Perkinelmer) were added so as to be 20 mg/ml with a GTP assay buffer, and the resultant was suspended (final concentration: 1 mg/well). 4 μL/well of a test substance solution, 10 μL/well of a DAMGO solution, 26 μL/well of a [^35S]-GTPγS solution, […] of a suspension liquid of WGA Coated PVT SPA Beads, and 110 μL/well of the membrane fraction solution were added to a 96 well plate (1450-401, Perkinelmer), the top part of the plate was sealed, and a reaction was performed at 30° C. for 60 minutes under stirring with a plate shaker. For each measurement plate, a well to which DMSO had been added instead of the test substance, and a well to which DMSO had been added instead of the test substance and a GTP assay buffer had been added instead of the DAMGO solution were prepared. Furthermore, after the reaction was completed, the reactant was centrifuged at room temperature and 1,000 rpm for 3 minutes, and the radioactivity was measured by a microplate scintillation luminescence counter (Perkinelmer).
The IC50 value of the test substance was calculated by using Graphpad Prism 5.

hERG = hERG (Homo sapiens (Human), UniProt Q12809); experiment: Safety margin against hERG inhibitory activity; settings: hERG IC50×1000/{concentration in plasma at ED50×(1−protein binding rate/100)}
Experimental: In order to compare the risks of extension of QT interval prolongation in the electrocardiogram among the test substances, the safety margins against the hERG inhibitory effect were calculated. […] Therefore, the following formula was used for calculating the safety margin, and the obtained values were described in Table 7. Safety margin against hERG inhibitory effect=IC50×1000/{concentration in plasma×(1−protein binding rate/100)}
IC50: the IC50 value in a hERG inhibition assay (μM)
Plasma concentration: the plasma concentration of test substance (nM) at the ED50 value in the test for evaluating the anti-pruritic effect in the morphine model
Protein binding rate: the protein binding rate (%) in the protein binding assay in murine serum

Structure (SMILES)	ED50 [1] [mg/kg]	IC50 (hERG current) [nM]	IC50 (human μ-opioid receptor) [nM]	Safety margin (hERG)
CC[C@]1(c2cc(NS(=O)(=O)C3CC3)ccc2F)[C@@H]2CN(CC3(O)Cc4ccccc4C3)C[C@@H]21 [Example 2-(b), N-(3-{(1R,5S,6r)-6-ethyl-3-[(2-hydroxy-2,3-dihydro-1H-inden-2-yl)methyl]-3-azabicyclo[3.1.0]hexan-6-yl}-4-fluorophenyl)cyclopropanesulfonamide hydrochloride]	0.83	160	2	1250
CC[C@]1(c2cccc(NS(=O)(=O)C3CC3)c2)[C@@H]2CN(CCCC3CCC(F)(F)CC3)C[C@@H]21 [Example 4-(b), N-(3-{(1R,5S,6r)-3-[3-(4,4-difluorocyclohexyl)propyl]-6-ethyl-3-azabicyclo[3.1.0]hexan-6-yl}phenyl)cyclopropanesulfonamide hydrochloride]	0.5	94	1.5	157
CC[C@]1(c2cc(NS(=O)(=O)C3CC3)ccc2F)[C@@H]2CN(CCCC3CCC(F)(F)CC3)C[C@@H]21 [Example 5-(b), N-(3-{(1R,5S,6r)-3-[3-(4,4-difluorocyclohexyl)propyl]-6-ethyl-3-azabicyclo[3.1.0]hexan-6-yl}-4-fluorophenyl)cyclopropanesulfonamide hydrochloride]	1.7	89	1.6	153
CC[C@]1(c2cccc(NS(=O)(=O)C3CC3)c2)[C@@H]2CN(CCCN3CCC(F)(F)C3)C[C@@H]21 [Example 8-(b), N-(3-{(1R,5S,6r)-3-[3-(3,3-difluoropyrrolidin-1-yl)propyl]-6-ethyl-3-azabicyclo[3.1.0]hexan-6-yl}phenyl)cyclopropanesulfonamide hydrochloride]	2	340	2.9	99
CC[C@]1(c2cc(F)cc(NS(=O)(=O)C3CC3)c2)[C@@H]2CN(CC3(O)Cc4ccccc4C3)C[C@@H]21 [Example 10-(b), N-(3-{(1R,5S,6r)-6-ethyl-3-[(2-hydroxy-2,3-dihydro-1H-inden-2-yl)methyl]-3-azabicyclo[3.1.0]hexan-6-yl}-5-fluorophenyl)cyclopropanesulfonamide hydrochloride]	1.8	62	3.2	5
CC[C@]1(c2cc(NS(=O)(=O)C3CC3)ccc2F)[C@@H]2CN(CCCN3CCC(F)(F)CC3)C[C@@H]21 [Example 15-(b), N-(3-{(1R,5S,6r)-3-[3-(4,4-difluoropiperidin-1-yl)propyl]-6-ethyl-3-azabicyclo[3.1.0]hexan-6-yl}-4-fluorophenyl)cyclopropanesulfonamide hydrochloride]	3.1	1300	1.7	182
CC[C@]1(c2cccc(NS(=O)(=O)C3CC3)c2)[C@@H]2CN(CCCN3CCCC(F)(F)C3)C[C@@H]21 [Example 16-(b), N-(3-{(1R,5S,6r)-3-[3-(3,3-difluoropiperidin-1-yl)propyl]-6-ethyl-3-azabicyclo[3.1.0]hexan-6-yl}phenyl)cyclopropanesulfonamide hydrochloride]	5.7	640	3.1	58
